# Key:
# healthy male subjects = experiment: Safety: treatment-emergent adverse events, SAD study; format: in vivo, human
# Description: Safety was assessed by monitoring adverse events (AEs) throughout the studies that were coded using the standard Medical Dictionary for Regulatory Activities (MedDRA) dictionary (versions 19.0 [SAD part 1], 20.0 [SAD part 2] and 21.1 [MAD]). Other safety monitoring included 12‐lead electrocardiography recordings, measurement of vital signs (systolic and diastolic blood pressure and heart rate), physical and neurological (Hamilton depression rating scale[17] and Beck depression inventory‐II fastscreen[18] [SAD only], mental status examination, cranial nerves assessment and motor system examination, sensation to light touch, coordination/cerebellar function assessment, Romberg's test, gait test, daytime sleepiness assessment [SAD and MAD studies]) examinations, haematology, biochemistry and urinalysis. To minimise risks in the SAD and MAD studies, subjects were dosed sequentially using sentinels in each cohort (1 IP, 1 placebo) as per European Medicines Agency guidelines.[19] If the previous dose was well tolerated, with no safety concerns, dose escalation was decided by the Safety Review Group after reviewing safety and PK data from all available cohorts. Moreover, treatment with the highest dose in the SAD study was repeated (cohort 10) for regular ophthalmological evaluations (assessments available as supplementary information) to better characterise visual AEs observed in the SAD study. Regular ophthalmological assessments were also performed in the MAD study.
# [1] = rat, in vivo; cited from earlier work
# Description: This is in line with nonclinical PK studies in rats and dogs, in which emodepside volume ...
# [2] = SAD Part 2, 10 mg LSF (fed) n = 6
# [3] = SAD Part 2, 40 mg LSF (fasting) n = 6
smiles,measurement,setting,value
CC(C)C[C@H]1C(=O)O[C@H](Cc2ccc(N3CCOCC3)cc2)C(=O)N(C)[C@@H](CC(C)C)C(=O)O[C@H](C)C(=O)N(C)[C@@H](CC(C)C)C(=O)O[C@H](Cc2ccc(N3CCOCC3)cc2)C(=O)N(C)[C@@H](CC(C)C)C(=O)O[C@H](C)C(=O)N1C [emodepside],TEAE: Psychiatric disorders,"healthy male subjects; SAD Part 1, 10 mg LSF n = 6",0 n (%)
same,"TEAE: Respiratory, thoracic and mediastinal disorders","healthy male subjects; SAD Part 1, 10 mg LSF n = 6",1 (16.7) n (%)
same,Any TEAE,"healthy male subjects; SAD Part 1, 20 mg IRT n = 6",2 (33.3) n (%)
same,TEAE: Eye disorders,"healthy male subjects; SAD Part 1, 20 mg IRT n = 6",0 n (%)
same,TEAE: Gastrointestinal disorders,"healthy male subjects; SAD Part 1, 20 mg IRT n = 6",1 (16.7) n (%)
same,TEAE: General disorders and administration site disorders,"healthy male subjects; SAD Part 1, 20 mg IRT n = 6",0 n (%)
same,TEAE: Infections and infestations,"healthy male subjects; SAD Part 1, 20 mg IRT n = 6",0 n (%)
same,"TEAE: Injury, poisoning and procedural complications","healthy male subjects; SAD Part 1, 20 mg IRT n = 6",0 n (%)
same,TEAE: Musculoskeletal and connective tissue disorders,"healthy male subjects; SAD Part 1, 20 mg IRT n = 6",1 (16.7) n (%)
same,TEAE: Nervous system disorders,"healthy male subjects; SAD Part 1, 20 mg IRT n = 6",1 (16.7) n (%)
same,TEAE: Psychiatric disorders,"healthy male subjects; SAD Part 1, 20 mg IRT n = 6",0 n (%)
same,"TEAE: Respiratory, thoracic and mediastinal disorders","healthy male subjects; SAD Part 1, 20 mg IRT n = 6",1 (16.7) n (%)
same,Any TEAE,"healthy male subjects; SAD Part 1, 20 mg LSF n = 6",3 (50.0) n (%)
same,TEAE: Eye disorders,"healthy male subjects; SAD Part 1, 20 mg LSF n = 6",1 (16.7) n (%)
same,TEAE: Gastrointestinal disorders,"healthy male subjects; SAD Part 1, 20 mg LSF n = 6",0 n (%)
same,TEAE: General disorders and administration site disorders,"healthy male subjects; SAD Part 1, 20 mg LSF n = 6",0 n (%)
same,TEAE: Infections and infestations,"healthy male subjects; SAD Part 1, 20 mg LSF n = 6",1 (16.7) n (%)
same,"TEAE: Injury, poisoning and procedural complications","healthy male subjects; SAD Part 1, 20 mg LSF n = 6",1 (16.7) n (%)
same,TEAE: Musculoskeletal and connective tissue disorders,"healthy male subjects; SAD Part 1, 20 mg LSF n = 6",0 n (%)
same,TEAE: Nervous system disorders,"healthy male subjects; SAD Part 1, 20 mg LSF n = 6",1 (16.7) n (%)
same,TEAE: Psychiatric disorders,"healthy male subjects; SAD Part 1, 20 mg LSF n = 6",0 n (%)
same,"TEAE: Respiratory, thoracic and mediastinal disorders","healthy male subjects; SAD Part 1, 20 mg LSF n = 6",1 (16.7) n (%)
same,Any TEAE,"healthy male subjects; SAD Part 1, 40 mg LSF n = 6",5 (83.3) n (%)
same,TEAE: Eye disorders,"healthy male subjects; SAD Part 1, 40 mg LSF n = 6",5 (83.3) n (%)
same,TEAE: Gastrointestinal disorders,"healthy male subjects; SAD Part 1, 40 mg LSF n = 6",0 n (%)
same,TEAE: General disorders and administration site disorders,"healthy male subjects; SAD Part 1, 40 mg LSF n = 6",0 n (%)
same,TEAE: Infections and infestations,"healthy male subjects; SAD Part 1, 40 mg LSF n = 6",1 (16.7) n (%)
same,"TEAE: Injury, poisoning and procedural complications","healthy male subjects; SAD Part 1, 40 mg LSF n = 6",0 n (%)
same,TEAE: Musculoskeletal and connective tissue disorders,"healthy male subjects; SAD Part 1, 40 mg LSF n = 6",1 (16.7) n (%)
same,TEAE: Nervous system disorders,"healthy male subjects; SAD Part 1, 40 mg LSF n = 6",3 (50.0) n (%)
same,TEAE: Psychiatric disorders,"healthy male subjects; SAD Part 1, 40 mg LSF n = 6",0 n (%)
same,"TEAE: Respiratory, thoracic and mediastinal disorders","healthy male subjects; SAD Part 1, 40 mg LSF n = 6",0 n (%)
same,Any TEAE,healthy male subjects; [2],3 (50.0) n (%)
same,TEAE: Eye disorders,healthy male subjects; [2],0 n (%)
same,TEAE: Gastrointestinal disorders,healthy male subjects; [2],0 n (%)
same,TEAE: General disorders and administration site disorders,healthy male subjects; [2],0 n (%)
same,TEAE: Infections and infestations,healthy male subjects; [2],0 n (%)
same,"TEAE: Injury, poisoning and procedural complications",healthy male subjects; [2],0 n (%)
same,TEAE: Musculoskeletal and connective tissue disorders,healthy male subjects; [2],0 n (%)
same,TEAE: Nervous system disorders,healthy male subjects; [2],2 (33.3) n (%)
same,TEAE: Psychiatric disorders,healthy male subjects; [2],0 n (%)
same,"TEAE: Respiratory, thoracic and mediastinal disorders",healthy male subjects; [2],1 (16.7) n (%)
same,Any TEAE,healthy male subjects; [3],5 (83.3) n (%)
same,TEAE: Eye disorders,healthy male subjects; [3],5 (83.3) n (%)
same,TEAE: Gastrointestinal disorders,healthy male subjects; [3],3 (50.0) n (%)
same,TEAE: General disorders and administration site disorders,healthy male subjects; [3],3 (50.0) n (%)
same,TEAE: Infections and infestations,healthy male subjects; [3],0 n (%)
same,"TEAE: Injury, poisoning and procedural complications",healthy male subjects; [3],0 n (%)
same,TEAE: Musculoskeletal and connective tissue disorders,healthy male subjects; [3],1 (16.7) n (%)
same,TEAE: Nervous system disorders,healthy male subjects; [3],4 (66.7) n (%)
same,TEAE: Psychiatric disorders,healthy male subjects; [3],1 (16.7) n (%)
same,"TEAE: Respiratory, thoracic and mediastinal disorders",healthy male subjects; [3],1 (16.7) n (%)
same,Drug-related visual disorder TEAEs,"healthy male subjects; SAD, 10 mg LSF in the fasting state",2 subjects
same,Drug-related visual disorder TEAEs,"healthy male subjects; SAD, 40 mg LSF in the fasting state",5 subjects
same,Time to spontaneous resolution of drug-related visual disorder TEAEs,"healthy male subjects; SAD, all mild",≤ 24 h
same,Onset of drug-related visual disorder TEAEs post-dose,healthy male subjects; in vivo,20 to 240 min
same,"Onset of drug-related visual disorder TEAEs, most often",healthy male subjects; in vivo,1 to 2.5 h
same,"Radioactivity levels in tissues vs blood, radio-labelled emodepside",[1],higher in most tissues than in the blood

# — publication PMC8518114, “Safety, tolerability and pharmacokinetics of emodepside, a potential novel treatment for onchocerciasis (river blindness), in healthy male subjects” (British Journal of Clinical Pharmacology, 2021)
